From patent publication US20230416256A1, “SMALL MOLECULE INHIBITORS OF NF-kB INDUCING KINASE” (Janssen Pharmaceutica NV, priority 2020, published 2023)
Like-named read-outs stand apart in the source and are kept apart here.

Legend:
[1] = target: recombinant human NF-kappaB-inducing kinase (NIK/MAP3K14) (Homo sapiens, UniProt Q99558); test: Inhibition of auto-phosphorylation of recombinant human NIK/MAP3K14 activity (AlphaScreen); type: biochemical; conditions: GST-tagged NIK/MAP3K14 1 nM, 5 μM ATP, 2 h at 25° C.; average of values obtained
Sequence of recombinant human NF-kappaB-inducing kinase (NIK/MAP3K14) (Q99558 whole entry): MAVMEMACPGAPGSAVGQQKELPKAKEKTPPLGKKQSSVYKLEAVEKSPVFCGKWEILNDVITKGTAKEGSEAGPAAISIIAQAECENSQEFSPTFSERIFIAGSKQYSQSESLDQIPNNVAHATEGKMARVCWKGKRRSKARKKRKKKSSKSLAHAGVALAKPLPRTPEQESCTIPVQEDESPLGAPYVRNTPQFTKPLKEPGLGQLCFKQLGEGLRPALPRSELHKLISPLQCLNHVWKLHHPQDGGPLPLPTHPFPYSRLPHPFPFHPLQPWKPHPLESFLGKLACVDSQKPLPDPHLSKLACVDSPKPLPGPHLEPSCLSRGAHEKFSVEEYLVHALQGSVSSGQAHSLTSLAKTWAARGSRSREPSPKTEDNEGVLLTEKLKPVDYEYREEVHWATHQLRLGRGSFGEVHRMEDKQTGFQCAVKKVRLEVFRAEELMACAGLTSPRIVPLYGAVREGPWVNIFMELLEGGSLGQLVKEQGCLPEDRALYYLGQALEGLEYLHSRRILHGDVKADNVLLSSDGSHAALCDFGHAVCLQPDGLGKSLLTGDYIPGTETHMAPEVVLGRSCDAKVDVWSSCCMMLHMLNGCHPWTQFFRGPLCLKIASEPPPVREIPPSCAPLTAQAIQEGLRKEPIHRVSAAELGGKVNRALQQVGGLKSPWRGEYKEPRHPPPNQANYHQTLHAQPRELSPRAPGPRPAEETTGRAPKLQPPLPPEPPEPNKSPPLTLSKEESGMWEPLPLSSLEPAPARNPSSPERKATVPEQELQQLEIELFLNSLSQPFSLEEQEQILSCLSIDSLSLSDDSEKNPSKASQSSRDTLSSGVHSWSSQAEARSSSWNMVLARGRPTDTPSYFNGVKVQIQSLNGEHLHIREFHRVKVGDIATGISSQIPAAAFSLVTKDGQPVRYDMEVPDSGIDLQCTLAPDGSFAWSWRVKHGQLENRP
Description: Inhibition of Auto-Phosphorylation of Recombinant Human NF-kappaB-Inducing Kinase (NIK/MAP3K14) Activity (AlphaScreen®)
NIK/MAP3K14 auto-phosphorylation activity was measured using the AlphaScreen® (αscreen) format (Perkin Elmer). All compounds tested were dissolved in dimethyl sulfoxide (DMSO) and further dilutions were made in assay buffer. The final DMSO concentration was 0.7% (v/v) in assays. The assay buffer was 50 mM Tris pH 7.5 containing 1 mM EGTA (ethylene glycol tetraacetic acid), 1 mM DTT (dithiothreitol), 0.1 mM Na3VO4, 5 mM MgCl2, and 0.01% Tween® 20. The assays were carried out in 384 well Proxiplates (Perkin Elmer). The incubations consisted of the compound, 5 μM Adenosine-5′-triphosphate (ATP), and 1 nM NIK/MAP3K14. Incubations were initiated by the addition of GST-tagged NIK/MAP3K14 enzyme, carried out for 2 h at 25° C. and terminated by addition of stop buffer containing anti-phospho-IKK Ser176/180 antibody. Protein A Acceptor and Glutathione-Donor beads were added before reading using an EnVision Multilabel Plate Reader (Perkin Elmer). The signal obtained in the wells was normalized using high (full enzyme activity, 0.7% DMSO) and low controls (no enzyme activity, 0.7% DMSO, no ATP). IC50's were determined by fitting a sigmoidal curve to % inhibition of control versus Log10 compound concentration.

[2] = system: p-IKKα levels in L363 (NIK translocated multiple myeloma) cells; test: Effect of compounds on p-IKKα levels in L363 cells (AlphaLISA SureFire Ultra); type: cell-based, human; conditions: 10 μM MG132, 6 h, average of values obtained, read-out: Assay 2 IC50
Description: Effect of Compounds on p-IKKα Levels in L363 (NIK Translocated Multiple Myeloma) Cells
All compounds tested were dissolved and serially diluted in DMSO, 1:3 dilution for 11 points in an Echo compatible plate. 100% DMSO was added to columns 12 and 24 of the plate to serve as high and low signal controls. This compound plate was used to spot 20 nL of compound or DMSO into a Greiner 384 well TC plate (781080). The final DMSO concentration was 0.3% (v/v) in cell assays. Human L363 cells (ATCC) were cultured in RPMI1640 medium supplemented with GlutaMax, non-essential amino acids, sodium pyruvate and 10% fetal bovine serum. Cells were routinely maintained at densities of […]-2×10^6 cells per mL at 37° C. in a humidified 5% CO2 atmosphere incubator. Cells were passaged twice a week splitting back to obtain the low density. The day before the assay, cells were washed twice in HBSS (Hank's Balanced Salt Solution), resuspended in Dulbecco's Modified Eagle Medium (DMEM)+0.5% IgG and protease free BSA (Jackson Immuno Research Laboratories), +/−250 ng/ml recombinant human B-cell activating factor (BAFF/BLyS/TNFSF13B) and incubated overnight at 37° C. in a humidified 5% CO2 atmosphere (bulk stimulation with or without BAFF). The next day, the cell concentration was adjusted to 1×10^7 cells/ml in DMEM+/−250 ng/ml BAFF+/10 μM MG132 and plated at […] into compound or DMSO spotted 384 well TC plates. Seeded cells were incubated at 37° C. in a humidified 5% CO2 atmosphere for 6 h. After 6 h, the plates were removed from the incubator and cell lysis was achieved by the addition of 2.5 μl 5×lysis buffer containing protease and phosphatase inhibitors, followed by shaking on a plate shaker at room temperature for 15 min. At the end of this incubation, lysed cells were sequentially treated and incubated with acceptor and donor bead mixes according to the manufacturer's protocol for a 1 plate/2-incubation suspension cell assay (AlphaLISA SureFire Ultra p-IKKa (Ser 176/180) Assay Kit (Perkin Elmer). Plates were read using an EnVision Multilabel Plate Reader (Perkin Elmer). Within an experiment, a concentration response curve for each compound was run in duplicate. The signal obtained in the test wells was normalized using high signal (BAFF stimulated cells, DMSO, MG132) and low signal (unstimulated cells, DMSO) controls. To determine the IC50, a sigmoidal curve was fitted to the plot of % inhibition versus Log10 compound concentration.

[3] = Homo sapiens, L-363, 6 h, 250 ng/ml BAFF stimulated
[4] = Homo sapiens, L-363, 250 ng/ml BAFF stimulated

| IC50 [1] [nM] | IC50 [2, 3] [nM] | IC50 ([2]; 250 ng/ml BAFF stimulated) [nM] | Compound | IC50 [2, 4] [nM] |
| --- | --- | --- | --- | --- |
| > 500 | > 500 |  | C[C@]1(O)C[C@](O)(c2cccc(-c3csc(-c4c[nH]c5ncccc45)n3)c2)c2ncccc21 (single isomer, unassigned) [Example 105] |  |
| > 500 | > 500 |  | C[C@@]1(O)C[C@](O)(c2cccc(-c3csc(-c4c[nH]c5ncccc45)n3)c2)c2ncccc21 (single isomer, unassigned) [Example 107] |  |
| 100 to 500 | > 500 |  | C[C@]1(O)C[C@@](O)(c2cccc(-c3csc(-c4c[nH]c5ncccc45)n3)c2)c2ncccc21 (single isomer, unassigned) [Example 108] |  |
| ≤ 100 | > 500 |  | Cc1noc2c1CC[C@@]2(O)c1cccc(-c2csc(-c3c[nH]c4ncccc34)n2)c1 (single isomer, unassigned) [Example 126] |  |
| ≤ 100 | ≤ 100 |  | O[C@@]1(c2cccc(-c3csc(-c4c[nH]c5ncccc45)n3)c2)CCn2ccnc21 [Example 10, (R)-7-(3-(2-(1H-Pyrrolo[2,3-b]pyridin-3-yl)thiazol-4-yl)phenyl)-6,7-dihydro-5H-pyrrolo[1,2-a]imidazol-7-ol] |  |
| ≤ 100 | ≤ 100 |  | O[C@@]1(c2cccc(-c3nc(-c4c[nH]c5nccnc45)cs3)c2)CCn2ccnc21 [Example 11, (R)-7-(3-(4-(5H-Pyrrolo[2,3-b]pyrazin-7-yl)thiazol-2-yl)phenyl)-6,7-dihydro-5H-pyrrolo[1,2-a]imidazol-7-ol] |  |
| 100 to 500 | > 500 |  | O[C@]1(c2cccc(-c3nc(-c4c[nH]c5nccnc45)cs3)c2)CCn2ccnc21 [Example 12, (S)-7-(3-(4-(5H-Pyrrolo[2,3-b]pyrazin-7-yl)thiazol-2-yl)phenyl)-6,7-dihydro-5H-pyrrolo[1,2-a]imidazol-7-ol] |  |
| ≤ 100 | > 500 |  | O[C@@]1(c2cccc(-c3csc(-c4c[nH]c5nccnc45)n3)c2)C=Cn2ccnc21 [Example 13, (R)-7-(3-(2-(5H-Pyrrolo[2,3-b]pyrazin-7-yl)thiazol-4-yl)phenyl)-7H-pyrrolo[1,2-a]imidazol-7-ol] |  |
| > 500 | > 500 |  | O[C@]1(c2cccc(-c3csc(-c4c[nH]c5nccnc45)n3)c2)C=Cn2ccnc21 [Example 14, (S)-7-(3-(2-(5H-Pyrrolo[2,3-b]pyrazin-7-yl)thiazol-4-yl)phenyl)-7H-pyrrolo[1,2-a]imidazol-7-ol] |  |
| ≤ 100 | 100 to 500 |  | O[C@@]1(c2cccc(-c3nc(-c4c[nH]c5ncccc45)cs3)c2)CCn2ccnc21 [Example 15, (R)-7-(3-(4-(1H-Pyrrolo[2,3-b]pyridin-3-yl)thiazol-2-yl)phenyl)-6,7-dihydro-5H-pyrrolo[1,2-a]imidazol-7-ol] |  |
| ≤ 100 |  | 100 to 500 | O[C@@]1(c2cccc(-c3csc(-c4c[nH]c5ncccc45)n3)c2)COc2cccnc21 [Example 16, (R)-3-(3-(2-(1H-Pyrrolo[2,3-b]pyridin-3-yl)thiazol-4-yl)phenyl)-2,3-dihydrofuro[3,2-b]pyridin-3-ol] |  |
| ≤ 100 |  | ≤ 100 | O[C@@]1(c2cccc(-c3csc(-c4c[nH]c5nccnc45)n3)c2)COc2cccnc21 [Example 17, (R)-3-(3-(2-(5H-Pyrrolo[2,3-b]pyrazin-7-yl)thiazol-4-yl)phenyl)-2,3-dihydrofuro[3,2-b]pyridin-3-ol] |  |
| > 500 | > 500 |  | [2H]c1[nH]c2nccnc2c1-c1nc(-c2cccc([C@@]3(O)CCn4ccnc43)c2)cs1 [Example 18, (S)-7-(3-(2-(5H-Pyrrolo[2,3-b]pyrazin-7-yl-6-d)thiazol-4-yl)phenyl)-6,7-dihydro-5H-pyrrolo[1,2-a]imidazol-7-ol] |  |
| > 500 | > 500 |  | [2H]c1cnc2[nH]cc(-c3nc(-c4cccc([C@@]5(O)CCn6ccnc65)c4)cs3)c2n1 [Example 19, (S)-7-(3-(2-(5H-Pyrrolo[2,3-b]pyrazin-7-yl-2-d)thiazol-4-yl)phenyl)-6,7-dihydro-5H-pyrrolo[1,2-a]imidazol-7-ol] |  |
| ≤ 100 | ≤ 100 |  | O[C@@]1(c2cccc(-c3csc(-c4c[nH]c5ncncc45)n3)c2)CCn2ccnc21 [Example 20, (R)-7-(3-(2-(7H-Pyrrolo[2,3-d]pyrimidin-5-yl)thiazol-4-yl)phenyl)-6,7-dihydro-5H-pyrrolo[1,2-a]imidazol-7-ol] |  |
| 100 to 500 | > 500 |  | O[C@]1(c2cccc(-c3csc(-c4c[nH]c5ncncc45)n3)c2)CCn2ccnc21 [Example 21, (S)-7-(3-(2-(7H-Pyrrolo[2,3-d]pyrimidin-5-yl)thiazol-4-yl)phenyl)-6,7-dihydro-5H-pyrrolo[1,2-a]imidazol-7-ol] |  |
| ≤ 100 | ≤ 100 |  | O[C@@]1(c2cccc(-c3csc(-c4c[nH]c5ncc(F)cc45)n3)c2)CCn2ccnc21 [Example 24, (R)-7-(3-(2-(5-Fluoro-1H-pyrrolo[2,3-b]pyridin-3-yl)thiazol-4-yl)phenyl)-6,7-dihydro-5H-pyrrolo[1,2-a]imidazol-7-ol] |  |

| Compound | IC50 [1] [nM] | IC50 [2, 3] [nM] | IC50 ([2]; 250 ng/ml BAFF stimulated) [nM] | IC50 [2, 4] [nM] |
| --- | --- | --- | --- | --- |
| CN1CC[C@@](O)(c2cccc(-n3ncc(-c4c[nH]c5ncccc45)n3)c2)C1=O (single isomer, unassigned) [Example 109] | ≤ 100 |  |  | > 500 |
| CN1CC[C@@](O)(c2cccc(-c3csc(-n4ccc5ncccc54)n3)c2)C1=O (single isomer, unassigned) [Example 111] | 100 to 500 |  |  | > 500 |
| CN1CC[C@@](O)(c2cccc(-n3cnc(-c4c[nH]c5ncccc45)n3)c2)C1=O (single isomer, unassigned) [Example 121] | ≤ 100 |  |  | > 500 |
| CN1CC[C@@](O)(c2cccc(-n3ccc(-c4c[nH]c5ncccc45)n3)c2)C1=O (single isomer, unassigned) [Example 122] | ≤ 100 |  |  | > 500 |
| CN1CC[C@@](O)(c2cccc(-n3cnc(-c4c[nH]c5ncccc45)c3)c2)C1=O (single isomer, unassigned) [Example 124] | > 500 |  |  | > 500 |
| Cc1cnc2[nH]cc(-c3nc(-c4cccc([C@]5(O)CCN(C)C5=O)c4)cs3)c2c1 [Example 7, (R)-3-Hydroxy-1-methyl-3-(3-(2-(5-methyl-1H-pyrrolo[2,3-b]pyridin-3-yl)thiazol-4-yl)phenyl)pyrrolidin-2-one] | ≤ 100 |  |  | 100 to 500 |
| CN1CC[C@@](O)(c2cccc(-c3nc(-c4c[nH]c5ncccc45)cs3)c2)C1=O [Example 8, (R)-3-(3-(4-(1H-Pyrrolo[2,3-b]pyridin-3-yl)thiazol-2-yl)phenyl)-3-hydroxy-1-methylpyrrolidin-2-one] | ≤ 100 |  |  | > 500 |
| CN1CC[C@@](O)(c2cccc(-c3ncc(-c4c[nH]c5ncccc45)s3)c2)C1=O [Example 9, (R)-3-(3-(5-(1H-Pyrrolo[2,3-b]pyridin-3-yl)thiazol-2-yl)phenyl)-3-hydroxy-1-methylpyrrolidin-2-one] | 100 to 500 |  |  | > 500 |
